Reference: the NIST ThermoML archive (doi:10.1021/je060271a)

Conditions: Liquid, Vibrating tube method

CCCCCCCC(=O)OCC(COC(=O)CCCCCCC)(COC(=O)CCCCCCC)COC(=O)CCCCCCC [pentaerythritol tetraoctanoate]
Conditions	mass density [kg/m3]
283.15 K, 29618 kPa	986.1
283.15 K, 29659 kPa	986
283.15 K, 29698 kPa	986.2
283.15 K, 29736 kPa	986.1
283.15 K, 29782 kPa	986.2
283.15 K, 29821 kPa	986.2
283.15 K, 29859 kPa	986.3
283.15 K, 29906 kPa	986.3
283.15 K, 29946 kPa	986.3
283.15 K, 29992 kPa	986.4
283.15 K, 30032 kPa	986.4
283.15 K, 30071 kPa	986.3
283.15 K, 30118 kPa	986.4
283.15 K, 30158 kPa	986.4
283.15 K, 30201 kPa	986.4
283.15 K, 30242 kPa	986.5
283.15 K, 30289 kPa	986.4
283.15 K, 30330 kPa	986.5
283.15 K, 30370 kPa	986.4
283.15 K, 30418 kPa	986.5
283.15 K, 30459 kPa	986.5
283.15 K, 30500 kPa	986.6
283.15 K, 30549 kPa	986.6
283.15 K, 30590 kPa	986.6
283.15 K, 30631 kPa	986.6
283.15 K, 30673 kPa	986.6
283.15 K, 30724 kPa	986.6
283.15 K, 30766 kPa	986.7
283.15 K, 30808 kPa	986.8
283.15 K, 30850 kPa	986.6
283.15 K, 30900 kPa	986.7
283.15 K, 30942 kPa	986.8
283.15 K, 30985 kPa	986.9
283.15 K, 31036 kPa	986.8
283.15 K, 31079 kPa	986.8
283.15 K, 31123 kPa	986.8
283.15 K, 31174 kPa	986.8
283.15 K, 31217 kPa	986.9
283.15 K, 31260 kPa	986.9
283.15 K, 31312 kPa	987
283.15 K, 31356 kPa	987.1
283.15 K, 31399 kPa	987
283.15 K, 31451 kPa	987.1
283.15 K, 31495 kPa	987.1
283.15 K, 31539 kPa	987
283.15 K, 31584 kPa	987
283.15 K, 31637 kPa	987.1
283.15 K, 31682 kPa	987.2
283.15 K, 31727 kPa	987.1
283.15 K, 31781 kPa	987.2
283.15 K, 31826 kPa	987.2
283.15 K, 31872 kPa	987.1
283.15 K, 31928 kPa	987.2
283.15 K, 31976 kPa	987.3
283.15 K, 32024 kPa	987.3
283.15 K, 32078 kPa	987.3
283.15 K, 32117 kPa	987.3
283.15 K, 32155 kPa	987.4
283.15 K, 32186 kPa	987.4
283.15 K, 32232 kPa	987.5
283.15 K, 32279 kPa	987.3
283.15 K, 32317 kPa	987.5
283.15 K, 32364 kPa	987.6
283.15 K, 32402 kPa	987.5
283.15 K, 32442 kPa	987.6
283.15 K, 32488 kPa	987.5
283.15 K, 32528 kPa	987.5
283.15 K, 32567 kPa	987.6
283.15 K, 32614 kPa	987.6
283.15 K, 32653 kPa	987.6
283.15 K, 32700 kPa	987.7
283.15 K, 32740 kPa	987.6
283.15 K, 32779 kPa	987.7
283.15 K, 32819 kPa	987.7
283.15 K, 32868 kPa	987.8
283.15 K, 32908 kPa	987.7
283.15 K, 32947 kPa	987.7
283.15 K, 32996 kPa	987.9
283.15 K, 33037 kPa	987.8
283.15 K, 33127 kPa	987.8
283.15 K, 33168 kPa	987.9
283.15 K, 33209 kPa	987.9
283.15 K, 33260 kPa	987.8
283.15 K, 33301 kPa	987.9
283.15 K, 33344 kPa	988
283.15 K, 33396 kPa	988
283.15 K, 33439 kPa	988
283.15 K, 33492 kPa	988.1
283.15 K, 33538 kPa	988
283.15 K, 33585 kPa	988.1
283.15 K, 33636 kPa	988.2
283.15 K, 33684 kPa	988.1
283.15 K, 33728 kPa	988.1
283.15 K, 33754 kPa	988.1
283.15 K, 33776 kPa	988.2
283.15 K, 33797 kPa	988.2
283.15 K, 33823 kPa	988.2
283.15 K, 33845 kPa	988.1
283.15 K, 33867 kPa	988.2
283.15 K, 33889 kPa	988.2
283.15 K, 33915 kPa	988.4
283.15 K, 33937 kPa	988.3
283.15 K, 33959 kPa	988.3
283.15 K, 33986 kPa	988.2
283.15 K, 34008 kPa	988.3
283.15 K, 34126 kPa	988.4
283.15 K, 34154 kPa	988.4
283.15 K, 34177 kPa	988.3
283.15 K, 34205 kPa	988.4
283.15 K, 34229 kPa	988.5
283.15 K, 34255 kPa	988.4
283.15 K, 34282 kPa	988.4
283.15 K, 34314 kPa	988.4
283.15 K, 34342 kPa	988.4
283.15 K, 34371 kPa	988.6
283.15 K, 34402 kPa	988.5
283.15 K, 34407 kPa	988.5
283.15 K, 34408 kPa	988.5
283.15 K, 34409 kPa	988.5
283.15 K, 34410 kPa	988.5
283.16 K, 5633.2 kPa	973.4
283.16 K, 22751 kPa	982.8
283.16 K, 22773 kPa	982.7
283.16 K, 22795 kPa	982.6
283.16 K, 33086 kPa	987.8
283.16 K, 33707 kPa	988.2
283.16 K, 34030 kPa	988.3
283.16 K, 34053 kPa	988.3
283.16 K, 34080 kPa	988.4
283.16 K, 34103 kPa	988.3
303.14 K, 3768.3 kPa	957.8
303.14 K, 3783 kPa	957.7
303.14 K, 3800.7 kPa	957.8
303.14 K, 3818.7 kPa	957.7
303.14 K, 3833.9 kPa	957.8
303.14 K, 3852.1 kPa	957.7
303.14 K, 3867.4 kPa	957.7
303.14 K, 3885.9 kPa	957.9
303.14 K, 3920.2 kPa	957.8
303.14 K, 3936.3 kPa	957.8
303.14 K, 3956 kPa	957.8
303.14 K, 3973 kPa	957.8
303.14 K, 3988.9 kPa	958
303.14 K, 4008.8 kPa	957.9
303.14 K, 4024.9 kPa	957.8
303.14 K, 4044.7 kPa	957.9
303.14 K, 4060.9 kPa	958
303.14 K, 4081.2 kPa	957.9
